In patent US20200079786A1, “ANALOGS OF […] AS SOLUBLE EPOXIDE HYDROLASE INHIBITORS” (UNIVERSITAT DE BARCELONA, priority 2015, published 2020):

Legend:
[1] = biological target: T1, recombinant human sEH (Homo sapiens, UniProt P34913); assay: In vitro determination of sEH inhibition activity (fluorescent assay, PHOME substrate); format: biochemical; conditions: mean ± Standard Error, min. three replicates, read-out: IC50 (nM) ± SE, sEH inhibition activity
T1 construct: purchased Cayman Chemical 10011669
T1 sequence (P34913 1-555): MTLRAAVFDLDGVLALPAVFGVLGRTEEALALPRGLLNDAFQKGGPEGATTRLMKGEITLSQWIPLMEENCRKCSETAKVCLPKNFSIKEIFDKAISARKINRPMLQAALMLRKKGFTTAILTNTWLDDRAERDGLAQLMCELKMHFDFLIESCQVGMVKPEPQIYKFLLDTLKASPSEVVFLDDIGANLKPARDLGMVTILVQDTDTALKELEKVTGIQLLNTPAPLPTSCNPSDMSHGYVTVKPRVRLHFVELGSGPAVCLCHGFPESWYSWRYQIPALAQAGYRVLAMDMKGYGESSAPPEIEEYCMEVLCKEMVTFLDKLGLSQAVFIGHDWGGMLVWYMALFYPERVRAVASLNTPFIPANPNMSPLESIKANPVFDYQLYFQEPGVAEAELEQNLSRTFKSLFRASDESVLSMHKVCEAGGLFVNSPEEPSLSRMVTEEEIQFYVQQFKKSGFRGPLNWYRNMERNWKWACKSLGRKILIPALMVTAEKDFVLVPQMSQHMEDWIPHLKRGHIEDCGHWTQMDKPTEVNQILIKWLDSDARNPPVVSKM
Description: 3-(Phenyl-oxiranyl)-acetic acid cyano-(6-methoxy-naphthalen-2-yl)-methyl ester (PHOME; from Cayman Chemical, item number 10009134; CAS 1028430-42-3); cf. N. M. Wolf et al., Anal. Biochem. 2006, vol. 355, pp. 71-80.
Solutions: • Assay buffer: Bis/Tris HCl 25 mM pH 7.0 containing 0.1 mg/mL of bovine serum albumin (BSA). • PHOME at 200 μM in DMSO. • Solution of recombinant human sEH (Cayman Chemical, item number 10011669), diluted with assay buffer. • Inhibitors dissolved in DMSO at appropriated concentrations.
In a black 96-well plate (Greiner Bio-One, item number 655900), fill the background wells with 90 μL and the positive control and inhibitor wells with 85 μL of assay buffer. Add 5 μL of DMSO to background and positive control wells, and then add 5 μL of inhibitor solution in inhibitor wells. Add 5 μL of the solution of hsEH to the positive control and inhibitor wells and mix several time. Prepare a 1/21 dilution of the solution of PHOME with assay buffer according to final volume required, and then add 105 μL of each well. Shake carefully the plate for 10 seconds and incubate for 5 minutes at room temperature. […] Results were obtained by regression analysis from at least three data points in a linear region of the curve. IC50 values are average of minimum three independent replicates.

[2] = system: Huh-7 cells; assay: Amelioration of palmitate-induced ER stress: ATF3, BiP and CHOP mRNA by real-time PCR; format: cell-based; conditions: palmitate 0.5 mM + inhibitor 1 μM, 48 h
Description: Huh-7 cells were maintained in a humid atmosphere of 5% CO2 at 37° C. in high glucose (25 mM) Dulbecco's modified Eagle's medium supplemented with 10% heat-inactivated fetal bovine serum, 1% of penicillin/streptomycin (10.000 units/mL of penicillin and 10.000 μg/mL of streptomycin) and 1% of amphotericin B (250 μg/mL).
Huh-7 cells were serum-starved overnight prior treatment. […] For RNA extraction, cells were pre-treated with the inhibitors (final concentration 1 μM) for 1 hour before treatment with palmitate (final concentration 0.5 mM) and inhibitors (final concentration 1 μM). For each condition, at least 3 replicates were performed. Following 48 hours of incubation, RNA were extracted as described below.
Total RNA in hepatocytes was harvested by TRIsure (Bioline) according to the manufacturer's instructions. The extracted RNA was dissolved in RNase-free water and concentrations of total RNA were quantified using a NanoDrop 2000c spectrophotometer (Thermo Scientific). First-stranded cDNA was synthesized from 0.5 μg total RNA (Life Technologies). […] The PCR reaction contained 10 ng of reverse-transcribed RNA, 2× IQ™ SYBRGreen Supermix (BioRad, Barcelona, Spain) and 900 nmol/L concentration of each primer. Optical primer amplification efficiency for each primer set was assessed and a dissociation protocol was carried out to assure a single PCR product. PCR assays were performed on a MiniOpticon™ Real-Time PCR system (BioRad). Thermal cycling conditions were as follows: activation of Taq DNA polymerase at 95° C. for 10 min, followed by 40 cycles of amplification at 95° C. for 15 sec and 60° C. for 1 min. The relative levels of specific mRNA were estimated from the value of the threshold cycle (Ct) of the real-time PCR adjusted by that of a housekeeping gene (GAPDH) through the formula […] (ΔCt=Gene of interest Ct-GAPDH Ct). Cf.

Q: Which results are given for `O=C(N[C@]12CC3C[C@@H](C[C@H](C3)O1)C2)N[C@H]1CC[C@H](Oc2ccc(C(=O)O)cc2)CC1` [Ig, trans-1-(2-oxaadamantan-1-yl)-3-[4-(4-carboxyphenoxy)cyclohexyl]urea]?
A: IC50 [1]: 13.4 ± 4 nM; Level of CHOP mRNA ([2]; control (CT) = 100.0, PAL alone 224.5): 147.6 ± 15.9^(##); Level of BiP mRNA ([2]; control (CT) = 100.0, PAL alone 242.9): 174.9 ± 31.4^(#); Level of ATF3 mRNA ([2]; control (CT) = 100.0, PAL alone 585.5): 286.7 ± 59.9^(###)
